Each structure is given as a SMILES string. A value given as a limit tells only on which side of the number the result lay.

Data set [1] has as its target Calcium/calmodulin-dependent protein kinase type 1 (Homo sapiens) (UniProt Q14012). The note with it: 3 to 6 uM.
Description: Inhibition of CAMK1 at 3 to 6 uM relative to control
Data set [2] deals with T1, Serine/threonine-protein kinase PLK1 (Homo sapiens, UniProt P53350). The note with it: 3 to 6 uM.
Description: Inhibition of PLK1 at 3 to 6 uM relative to control
In data set [3] the target is Dual specificity mitogen-activated protein kinase kinase 1 (Homo sapiens) (UniProt Q02750). Conditions: 3 to 6 uM.
Description: Inhibition of MKK1 at 3 to 6 uM relative to control
Data set [4] addresses Mitogen-activated protein kinase 14 (Homo sapiens) (UniProt Q16539). Conditions: 3 to 6 uM.
Description: Inhibition of p38a at 3 to 6 uM relative to control
The target in data set [5] is Serine/threonine-protein kinase 26 (Homo sapiens, UniProt Q9P289). Kind of data set: Inhibition of MST4.
The target in data set [6] is Cytochrome P450 2D6 (Homo sapiens, UniProt P10635). Kind of data set: Inhibition of human CYP2D6 by fluorescence assay. The class given is ADME.
The target in data set [7] is Casein kinase I isoform alpha (Homo sapiens) (UniProt P48729). Conditions: 3 to 6 uM.
Description: Inhibition of CK1 at 3 to 6 uM relative to control
Data set [8] has as its target Death-associated protein kinase 1 (Homo sapiens) (UniProt P53355). Conditions: 3 to 6 uM.
Description: Inhibition of DAPK1 at 3 to 6 uM relative to control
The target of data set [9] is Focal adhesion kinase 1 (Homo sapiens, UniProt Q05397). Kind of data set: Inhibition of PTK2.
Data set [10] deals with Tyrosine-protein kinase JAK3 (Homo sapiens) (UniProt P52333). Conditions: 3 to 6 uM.
Description: Inhibition of JAK3 at 3 to 6 uM relative to control
The target of data set [11] is RAC-beta serine/threonine-protein kinase (Homo sapiens) (UniProt P31751). Conditions: 3 to 6 uM.
Description: Inhibition of PKBbeta at 3 to 6 uM relative to control
Data set [12] has as its target Cytochrome P450 2C9 (Homo sapiens, UniProt P11712). As to the kind of experiment: Inhibition of human CYP2C9 by fluorescence assay. Type of data set: ADME.
Data set [13] concerns the target Caspase-1 (Homo sapiens) (UniProt P29466). The note with it: 3 to 6 uM.
Description: Inhibition of ICE at 3 to 6 uM relative to control
Data set [14] concerns the target Ribosomal protein S6 kinase alpha-3 (Homo sapiens) (UniProt P51812). Conditions: 3 to 6 uM.
Description: Inhibition of RSK2 at 3 to 6 uM relative to control
Data set [15] deals with Proto-oncogene tyrosine-protein kinase Src (Homo sapiens) (UniProt P12931). The note with it: 3 to 6 uM.
Description: Inhibition of SRC at 3 to 6 uM relative to control
The target of data set [16] is Mitogen-activated protein kinase 8 (Homo sapiens) (UniProt P45983). Conditions: 3 to 6 uM.
Description: Inhibition of JNK1a1 at 3 to 6 uM relative to control
The target in data set [17] is Cyclin-dependent kinase 2 (Homo sapiens) (UniProt P24941). Conditions: 3 to 6 uM.
Description: Inhibition of CDK2 at 3 to 6 uM relative to control
Data set [18] can be described thus: Permeability from basolateral to apical side in human Caco-2 cells. Type of data set: ADME, cell-based. Conditions: read-out: permeability. For orientation: Passage across Caco-2 layers is used to estimate intestinal permeability.
The target of data set [19] is Myosin light chain kinase, smooth muscle (Homo sapiens) (UniProt Q15746). The note with it: 3 to 6 uM.
Description: Inhibition of SMMLCK at 3 to 6 uM relative to control
Data set [20] concerns the target Serine/threonine-protein kinase haspin (Homo sapiens) (UniProt Q8TF76). The note with it: 3 to 6 uM.
Description: Inhibition of GSG2 at 3 to 6 uM relative to control
Data set [21] has as its target Lymphokine-activated killer T-cell-originated protein kinase (Homo sapiens) (UniProt Q96KB5). Conditions: 3 to 6 uM.
Description: Inhibition of PBK at 3 to 6 uM relative to control
Data set [22] concerns the target Serine/threonine-protein kinase 3 (Homo sapiens) (UniProt Q13188). Kind of data set: Inhibition of MST2 at 3 uM relative to control; values are per cent of control.
For data set [23], the target named is Serine/threonine-protein kinase pim-2 (Homo sapiens, UniProt Q9P1W9). Kind of data set: Inhibition of PIM2 at 3 uM relative to control; values are per cent of control.
Data set [24] is described as follows: Inhibition of PKBD at 3 uM relative to control; values are per cent of control.
For data set [25], the target named is Calcium/calmodulin-dependent protein kinase type 1 (Homo sapiens) (UniProt Q14012). As to the kind of experiment: Inhibition of CAMK1 at 3 uM relative to control; values are per cent of control.
Data set [26] has as its target Serine/threonine-protein kinase Nek7 (Homo sapiens) (UniProt Q8TDX7). As to the kind of experiment: Inhibition of NEK7 at 3 uM relative to control; values are per cent of control.
The target of data set [27] is Protein kinase C alpha type (Homo sapiens) (UniProt P17252). Kind of data set: Inhibition of PKCalpha. The note with it: values are per cent of control.
Data set [28] has as its target Serine/threonine-protein kinase MRCK beta (Homo sapiens) (UniProt Q9Y5S2). Kind of data set: Inhibition of CDC42BPB.
The target in data set [29] is Mitogen-activated protein kinase 8 (Homo sapiens) (UniProt P45983). Kind of data set: Inhibition of JNK1a1 at 3 uM relative to control; values are per cent of control.
In data set [30] the target is Aurora kinase B (Homo sapiens) (UniProt Q96GD4). Kind of data set: Inhibition of Aurora B at 3 uM relative to control; values are per cent of control.
Data set [31] concerns the target T1, Serine/threonine-protein kinase PLK1. Kind of data set: Inhibition of PLK1 at 3 uM relative to control; values are per cent of control.
Data set [32] concerns the target T2, Protein kinase C epsilon type (Homo sapiens, UniProt Q02156).
T2 sequence (Q02156 whole entry): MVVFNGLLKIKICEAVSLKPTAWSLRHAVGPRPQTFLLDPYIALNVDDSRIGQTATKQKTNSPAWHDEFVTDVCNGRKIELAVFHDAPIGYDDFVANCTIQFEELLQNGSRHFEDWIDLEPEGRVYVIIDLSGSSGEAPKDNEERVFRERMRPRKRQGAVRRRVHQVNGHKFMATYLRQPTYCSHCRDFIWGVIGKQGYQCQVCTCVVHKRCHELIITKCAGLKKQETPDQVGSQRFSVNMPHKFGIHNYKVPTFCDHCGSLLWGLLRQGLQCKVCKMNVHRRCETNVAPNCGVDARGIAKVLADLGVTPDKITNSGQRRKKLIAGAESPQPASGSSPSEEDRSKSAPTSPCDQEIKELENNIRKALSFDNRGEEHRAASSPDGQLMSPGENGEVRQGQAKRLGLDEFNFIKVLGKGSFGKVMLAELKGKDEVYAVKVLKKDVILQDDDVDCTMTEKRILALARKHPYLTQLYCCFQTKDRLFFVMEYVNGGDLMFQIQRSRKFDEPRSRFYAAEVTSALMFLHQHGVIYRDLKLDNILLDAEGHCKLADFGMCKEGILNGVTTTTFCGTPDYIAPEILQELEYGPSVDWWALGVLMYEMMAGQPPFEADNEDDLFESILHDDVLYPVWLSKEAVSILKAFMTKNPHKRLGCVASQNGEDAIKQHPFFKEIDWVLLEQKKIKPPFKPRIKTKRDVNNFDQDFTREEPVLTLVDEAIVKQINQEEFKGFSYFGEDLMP
Kind of data set: Inhibition of PKCepsilon.

The target in data set [33] is Ribosomal protein S6 kinase alpha-3 (Homo sapiens) (UniProt P51812). Kind of data set: Inhibition of MAPKAPK1b at 3 uM relative to control; values are per cent of control.
Sequence of Ribosomal protein S6 kinase alpha-3 (Homo sapiens) (P51812 whole entry): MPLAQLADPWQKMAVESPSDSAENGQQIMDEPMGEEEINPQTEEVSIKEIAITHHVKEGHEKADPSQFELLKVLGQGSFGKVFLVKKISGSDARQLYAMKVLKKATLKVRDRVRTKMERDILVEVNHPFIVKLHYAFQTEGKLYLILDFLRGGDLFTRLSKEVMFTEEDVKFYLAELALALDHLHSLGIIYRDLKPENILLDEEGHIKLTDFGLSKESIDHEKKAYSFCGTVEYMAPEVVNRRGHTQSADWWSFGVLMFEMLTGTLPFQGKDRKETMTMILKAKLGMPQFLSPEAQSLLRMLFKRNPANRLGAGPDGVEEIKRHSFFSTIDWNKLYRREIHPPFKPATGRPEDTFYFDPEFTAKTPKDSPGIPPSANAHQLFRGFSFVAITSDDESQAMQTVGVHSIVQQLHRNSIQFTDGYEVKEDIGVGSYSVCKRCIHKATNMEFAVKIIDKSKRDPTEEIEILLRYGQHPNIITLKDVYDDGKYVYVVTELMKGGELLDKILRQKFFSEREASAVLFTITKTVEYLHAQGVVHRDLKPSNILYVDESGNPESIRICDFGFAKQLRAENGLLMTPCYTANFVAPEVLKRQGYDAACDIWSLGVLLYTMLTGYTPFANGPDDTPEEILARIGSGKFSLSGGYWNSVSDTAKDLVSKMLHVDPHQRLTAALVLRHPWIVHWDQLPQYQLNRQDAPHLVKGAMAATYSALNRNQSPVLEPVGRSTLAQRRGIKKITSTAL

T1 sequence (P53350 whole entry): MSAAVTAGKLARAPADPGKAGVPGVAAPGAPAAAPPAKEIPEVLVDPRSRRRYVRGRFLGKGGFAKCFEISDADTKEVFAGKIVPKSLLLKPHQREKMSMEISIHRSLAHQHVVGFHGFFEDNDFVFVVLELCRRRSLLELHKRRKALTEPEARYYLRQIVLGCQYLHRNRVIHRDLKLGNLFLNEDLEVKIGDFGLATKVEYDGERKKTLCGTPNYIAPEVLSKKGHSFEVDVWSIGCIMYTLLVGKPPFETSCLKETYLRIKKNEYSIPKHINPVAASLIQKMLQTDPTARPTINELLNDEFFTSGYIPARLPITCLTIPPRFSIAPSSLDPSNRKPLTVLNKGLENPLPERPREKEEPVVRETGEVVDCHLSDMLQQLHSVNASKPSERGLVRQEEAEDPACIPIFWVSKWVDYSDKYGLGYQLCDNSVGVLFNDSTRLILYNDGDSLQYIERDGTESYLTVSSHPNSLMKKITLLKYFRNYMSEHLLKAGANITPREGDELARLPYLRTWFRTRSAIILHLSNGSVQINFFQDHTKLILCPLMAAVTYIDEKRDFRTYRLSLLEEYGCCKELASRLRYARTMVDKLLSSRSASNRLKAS
Sequence of Calcium/calmodulin-dependent protein kinase type 1 (Homo sapiens) (Q14012 whole entry, looked up): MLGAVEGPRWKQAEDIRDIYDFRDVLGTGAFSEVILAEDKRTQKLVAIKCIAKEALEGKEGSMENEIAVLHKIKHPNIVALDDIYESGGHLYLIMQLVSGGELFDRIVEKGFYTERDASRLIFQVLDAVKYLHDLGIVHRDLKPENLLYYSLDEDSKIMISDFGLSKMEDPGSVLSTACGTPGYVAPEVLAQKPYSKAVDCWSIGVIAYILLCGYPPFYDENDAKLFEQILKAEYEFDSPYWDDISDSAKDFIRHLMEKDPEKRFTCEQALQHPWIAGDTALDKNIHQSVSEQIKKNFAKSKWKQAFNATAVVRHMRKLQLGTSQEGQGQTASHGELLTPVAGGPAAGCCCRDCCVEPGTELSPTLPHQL
Sequence of Mitogen-activated protein kinase 8 (Homo sapiens) (P45983 whole entry): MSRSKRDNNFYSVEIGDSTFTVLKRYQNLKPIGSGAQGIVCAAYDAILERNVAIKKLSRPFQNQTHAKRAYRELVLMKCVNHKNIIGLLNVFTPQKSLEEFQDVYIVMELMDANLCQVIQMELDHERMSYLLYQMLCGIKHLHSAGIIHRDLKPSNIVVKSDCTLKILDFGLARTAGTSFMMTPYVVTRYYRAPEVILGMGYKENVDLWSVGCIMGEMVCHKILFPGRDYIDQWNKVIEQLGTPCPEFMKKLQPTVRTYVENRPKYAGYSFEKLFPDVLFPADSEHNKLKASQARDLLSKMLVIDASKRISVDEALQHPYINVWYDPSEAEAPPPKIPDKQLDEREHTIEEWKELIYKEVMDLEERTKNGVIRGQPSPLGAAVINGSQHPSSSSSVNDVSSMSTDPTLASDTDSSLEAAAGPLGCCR
Sequence of Serine/threonine-protein kinase haspin (Homo sapiens) (Q8TF76 whole entry): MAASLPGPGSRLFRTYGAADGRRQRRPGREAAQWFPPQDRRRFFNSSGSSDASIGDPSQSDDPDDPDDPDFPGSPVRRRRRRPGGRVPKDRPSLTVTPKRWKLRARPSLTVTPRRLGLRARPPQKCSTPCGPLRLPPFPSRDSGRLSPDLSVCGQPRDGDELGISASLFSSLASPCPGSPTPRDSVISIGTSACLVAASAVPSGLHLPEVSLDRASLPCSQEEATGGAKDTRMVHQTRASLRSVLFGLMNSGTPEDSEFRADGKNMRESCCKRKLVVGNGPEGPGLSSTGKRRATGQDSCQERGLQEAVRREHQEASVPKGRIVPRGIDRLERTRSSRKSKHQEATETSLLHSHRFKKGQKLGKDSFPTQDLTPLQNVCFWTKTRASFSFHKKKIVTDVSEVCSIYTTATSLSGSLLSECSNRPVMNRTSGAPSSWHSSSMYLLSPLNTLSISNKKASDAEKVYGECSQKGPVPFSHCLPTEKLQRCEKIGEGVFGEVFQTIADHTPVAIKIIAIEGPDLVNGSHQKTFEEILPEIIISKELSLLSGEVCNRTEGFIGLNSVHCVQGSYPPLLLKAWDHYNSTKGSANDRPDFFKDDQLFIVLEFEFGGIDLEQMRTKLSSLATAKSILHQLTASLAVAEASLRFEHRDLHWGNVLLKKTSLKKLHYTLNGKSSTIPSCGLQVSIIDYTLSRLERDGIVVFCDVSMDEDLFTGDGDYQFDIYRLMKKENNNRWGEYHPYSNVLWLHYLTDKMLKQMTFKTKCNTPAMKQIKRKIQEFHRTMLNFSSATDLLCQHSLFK
Sequence of Serine/threonine-protein kinase pim-2 (Q9P1W9 whole entry, looked up): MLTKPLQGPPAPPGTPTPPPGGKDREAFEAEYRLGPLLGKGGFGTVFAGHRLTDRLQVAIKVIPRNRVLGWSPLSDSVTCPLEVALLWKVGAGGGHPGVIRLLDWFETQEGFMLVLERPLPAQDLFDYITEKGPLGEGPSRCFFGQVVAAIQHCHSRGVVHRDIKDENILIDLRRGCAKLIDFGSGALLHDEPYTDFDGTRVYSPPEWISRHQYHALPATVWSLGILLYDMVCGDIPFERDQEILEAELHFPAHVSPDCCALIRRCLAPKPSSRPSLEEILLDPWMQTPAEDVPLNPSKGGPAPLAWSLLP
Sequence of Lymphokine-activated killer T-cell-originated protein kinase (Homo sapiens) (Q96KB5 whole entry): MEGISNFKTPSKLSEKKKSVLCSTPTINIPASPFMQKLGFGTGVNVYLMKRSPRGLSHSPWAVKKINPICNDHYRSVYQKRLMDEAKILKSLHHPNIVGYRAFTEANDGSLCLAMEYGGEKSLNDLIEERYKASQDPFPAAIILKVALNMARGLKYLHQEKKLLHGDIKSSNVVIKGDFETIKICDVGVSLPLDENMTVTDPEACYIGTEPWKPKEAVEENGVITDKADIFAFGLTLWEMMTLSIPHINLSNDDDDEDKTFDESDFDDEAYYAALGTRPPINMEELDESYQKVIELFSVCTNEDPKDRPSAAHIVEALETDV
Sequence of Aurora kinase B (Homo sapiens) (Q96GD4 whole entry): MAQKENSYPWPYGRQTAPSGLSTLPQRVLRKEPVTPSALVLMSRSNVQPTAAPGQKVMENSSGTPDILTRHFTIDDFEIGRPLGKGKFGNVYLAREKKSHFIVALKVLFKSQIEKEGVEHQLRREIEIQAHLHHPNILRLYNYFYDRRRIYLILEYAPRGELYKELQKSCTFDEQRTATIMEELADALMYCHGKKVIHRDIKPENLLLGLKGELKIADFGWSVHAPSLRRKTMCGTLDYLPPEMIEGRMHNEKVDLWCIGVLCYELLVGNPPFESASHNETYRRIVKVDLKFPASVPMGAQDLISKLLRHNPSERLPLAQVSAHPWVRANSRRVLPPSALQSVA
Sequence of Serine/threonine-protein kinase 3 (Homo sapiens) (Q13188 whole entry): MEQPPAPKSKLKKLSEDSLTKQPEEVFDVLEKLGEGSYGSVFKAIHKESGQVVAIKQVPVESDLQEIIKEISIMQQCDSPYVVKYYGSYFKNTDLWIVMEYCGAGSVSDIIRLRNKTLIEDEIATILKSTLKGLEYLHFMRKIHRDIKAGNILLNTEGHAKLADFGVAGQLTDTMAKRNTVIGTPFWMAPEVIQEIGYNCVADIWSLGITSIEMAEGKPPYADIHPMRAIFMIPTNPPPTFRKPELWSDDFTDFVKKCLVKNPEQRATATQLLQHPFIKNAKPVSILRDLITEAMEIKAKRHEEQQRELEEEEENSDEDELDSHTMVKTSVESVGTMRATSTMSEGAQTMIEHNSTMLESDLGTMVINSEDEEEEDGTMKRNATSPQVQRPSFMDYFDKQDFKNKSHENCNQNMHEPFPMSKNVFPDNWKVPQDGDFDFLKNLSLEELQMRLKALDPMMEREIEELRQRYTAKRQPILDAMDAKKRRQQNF
Sequence of Serine/threonine-protein kinase Nek7 (Homo sapiens) (Q8TDX7 whole entry, looked up): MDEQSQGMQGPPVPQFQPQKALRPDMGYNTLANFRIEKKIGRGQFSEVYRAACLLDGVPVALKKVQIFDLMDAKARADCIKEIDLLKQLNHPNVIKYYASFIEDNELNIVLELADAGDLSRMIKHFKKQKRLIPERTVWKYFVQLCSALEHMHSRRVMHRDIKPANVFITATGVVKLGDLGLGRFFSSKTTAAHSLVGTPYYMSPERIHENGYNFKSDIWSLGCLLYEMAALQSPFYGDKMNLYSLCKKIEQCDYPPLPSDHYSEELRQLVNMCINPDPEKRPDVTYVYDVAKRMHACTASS

Usually IC50 stands for the concentration at which inhibition is half-maximal. A low value points to greater potency. As for `COc1ccc(C(=O)NCc2cccc(C(=O)Nc3ccc4c(c3)CNCC4)c2)cc1OC`, the residual activity in data set [1], in data set [2], in [3], in data set [4], in data set [7] and in [8] was above 50% each time. For the same molecule, the residual activity in data set [10], in data set [11], in data set [13], in data set [14], in [15] and in data set [16] was above 50% each time. The residual activity in data set [17], in data set [19], in data set [20] and in [21] was above 50% throughout. The IC50 in [5] was above 10 µM; in data set [6], above 30 µM; in [9], above 10 µM; in data set [12], above 30 µM. The Papp B→A in [18] was determined as 5.4 ×10⁻⁶ cm/s.

In the case of `NC(=O)c1ccc(NC(=O)NCc2cccc(C(=O)Nc3ccc4c(c3)CNCC4)c2)cc1`, the residual activity was above 50% in data set [22]; above 50% in data set [23]; above 50% in data set [24]; above 50% in data set [25]; above 50% in data set [26]; 50% in data set [27]. For the same molecule, the residual activity in data set [29], in data set [30], in [31] and in data set [33] was above 50% each time. In addition, the IC50 in [28] and in data set [32] was above 5 µM in each case.

These data come from ChEMBL document CHEMBL1157712, “Hit to lead account of the discovery of bisbenzamide and related ureidobenzamide inhibitors of Rho kinase” (J Med Chem, 2010).
